{"source": "paper PMC11628845", "about": "(Acta Pharmaceutica Sinica. B, 2024)", "key": {"HBV [1]": {"tested_on": "HBV", "experiment": "HBVcircle transfection system in Huh7 cells", "assay_type": "cell-based, Hepatitis B virus", "conditions": "0.1-200 μmol/L, 48 h"}, "[2]": {"tested_on": "wild-type HBV (genotype C)", "experiment": "microbe, parasite or virus in culture", "assay_type": "cell-based", "conditions": "Hepatitis B virus"}, "[3]": {"tested_on": "ETV-resistant HBV (rtL180M + A181C + M204V)", "experiment": "microbe, parasite or virus in culture", "assay_type": "cell-based", "conditions": "Hepatitis B virus"}, "wild type HBV (pHBV 1.3)": {"tested_on": "wild type HBV (pHBV 1.3)", "experiment": "microbe, parasite or virus in culture", "assay_type": "cell-based", "conditions": "read-out: HBeAg IC50"}, "Cp149 protein": {"molecular_target": "Cp149 protein (Hepatitis B virus genotype D subtype ayw, UniProt P03146)", "sequence (P03146 1-149)": "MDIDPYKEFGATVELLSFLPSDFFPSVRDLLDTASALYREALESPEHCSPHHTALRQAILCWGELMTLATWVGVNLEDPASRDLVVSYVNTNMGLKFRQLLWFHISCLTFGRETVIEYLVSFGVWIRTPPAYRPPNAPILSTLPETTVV", "experiment": "biochemical", "conditions": "read-out: inhibition of capsid formation"}, "in vivo": {"experiment": "in vivo", "set-up": "species or system ICR mouse"}, "HBV genotypes A‒D": {"tested_on": "HBV genotypes A‒D", "experiment": "Antiviral activity across HBV genotypes A‒D in Huh7", "assay_type": "cell-based", "conditions": "Hepatitis B virus, Huh-7, read-out: IC50 across HBV genotypes"}, "HBV [4]": {"tested_on": "HBV", "experiment": "HBV infection of HepG2-NTCP cells, secreted HBeAg by ELISA"}, "HBV [5]": {"tested_on": "HBV", "conditions": "cited from earlier work"}, "HBcAg": {"molecular_target": "HBcAg (Hepatitis B virus genotype D subtype ayw, UniProt P03146)", "sequence (P03146 whole entry)": "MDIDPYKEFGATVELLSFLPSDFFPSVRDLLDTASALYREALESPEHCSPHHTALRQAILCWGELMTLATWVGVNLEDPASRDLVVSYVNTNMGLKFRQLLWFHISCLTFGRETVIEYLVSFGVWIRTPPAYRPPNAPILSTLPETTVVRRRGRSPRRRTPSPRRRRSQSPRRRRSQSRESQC", "assay_type": "cell-based"}, "[6]": {"conditions": "Huh-7, read-out: HBeAg IC50, rt180M181C204V"}}, "note": "Read-outs that look alike come from different tables or passages of the source."}
{"compound": "COc1ccc(Cc2nc(NC(=O)C34CC5CC(CC(C5)C3)C4)n(C)c2Cc2ccc(OC)c(OC)c2)cc1", "note": "[11a, (Z)-N-(5-(3,4-Dimethoxybenzyl)-4-(4-methoxybenzyl)-1-methyl-1,3-dihydro-2H-imidazole-2-ylidene)adamantane-1-carboxamide]", "values": [{"measurement": "HBsAg and cccDNA", "setting": "HBV [1]", "value": "not HBsAg and cccDNA"}, {"measurement": "secreted HBeAg", "setting": "HBV [1]", "value": "inhibits HBeAg in a concentration-dependent manner"}, {"measurement": "IC50", "setting": "[2]; Huh-7, read-out: HBeAg IC50", "value": 12900, "unit": "nM"}, {"measurement": "IC50", "setting": "[2]; Huh-7, wild-type cells", "value": 750, "unit": "nM"}, {"measurement": "IC50", "setting": "[3]; Huh-7, ETV-resistant cells", "value": 13700, "unit": "nM"}, {"measurement": "IC50", "setting": "[3]; [6]", "value": 45700, "unit": "nM"}, {"measurement": "IC50", "setting": "wild type HBV (pHBV 1.3); Hepatitis B virus", "value": 15200, "unit": "nM"}, {"measurement": "inhibition at 40 µM", "setting": "Cp149 protein", "value": 53, "unit": "%"}, {"measurement": "half-life", "setting": "in vivo; both, ICR, mouse, in vivo", "value": "3 to 6.2", "unit": "h"}, {"measurement": "bioavailability", "setting": "in vivo; both, ICR, mouse, in vivo, po, 10 mg/kg", "value": "24.8 to 39.2", "unit": "%"}, {"measurement": "plasma clearance", "setting": "in vivo; po, range over female and male mice", "value": "202 to 322", "unit": "mL/min/kg"}, {"measurement": "IC50", "setting": "HBV genotypes A‒D", "value": "100 to 1970", "unit": "nM"}, {"measurement": "HBV DNA vs control group", "setting": "HBV (pHBV1.3); 50 mpk b.i.d., intraperitoneal", "value": "no statistical difference"}, {"measurement": "serum HBeAg and HBsAg levels", "setting": "HBV (pHBV1.3); 50 or 100 mpk b.i.d.", "value": "None of these treatments altered serum HBeAg and HBsAg levels"}, {"measurement": "reduction of HBV DNA in plasma", "setting": "HBV (pHBV1.3); 100 mpk b.i.d., intraperitoneal, Day 5", "value": 4, "unit": "fold"}, {"measurement": "antiviral effect of combination with TDF", "setting": "HBV (pHBV1.3); TDF 2 mpk q.d. and 11a 100 mpk b.i.d.", "value": "weak synergistic antiviral effects"}, {"measurement": "serum ALT and AST levels or body weight", "setting": "HBV (pHBV1.3); control vs experimental groups", "value": "no significant changes"}, {"measurement": "H&E staining in liver tissues", "setting": "HBV (pHBV1.3); mouse, in vivo", "value": "no obvious pathological changes"}, {"measurement": "levels of HBcAg in liver, immunofluorescence", "setting": "HBV (pHBV1.3); mouse, in vivo", "value": "significantly reduced the levels of HBcAg"}, {"measurement": "IC50", "setting": "HBV [4]; Hepatitis B virus, read-out: half inhibitory concentration on HBeAg", "value": 23700, "unit": "nM"}, {"measurement": "inhibition of HBeAg levels in combination with IFNa2", "setting": "HBV [4]; IFNa2 1000 IU/mL plus 11a 10 and 30 μmol/L, HepG2-NTCP", "value": "significant synergistic inhibition"}]}
{"compound": "COc1ccccc1/C(Br)=C(\\NC(=O)c1ccc([N+](=O)[O-])cc1)C(=O)N1CCCCC1", "note": "[AT-130]", "values": [{"measurement": "IC50", "setting": "HBV [5]", "value": 127, "unit": "nM"}]}
{"compound": "COC(=O)C1=C(C)NC(c2ncc(F)cc2F)=N[C@H]1c1ccc(F)cc1Cl", "note": "[Bay 41-4109]", "values": [{"measurement": "IC50", "setting": "HBV [5]; anti-HBV potency", "value": 50, "unit": "nM"}]}
{"compound": "C=C1[C@H](CO)[C@@H](O)C[C@@H]1n1cnc2c(=O)[nH]c(N)nc21", "note": "[ETV, entecavir, reference compound]", "values": [{"measurement": "IC50", "setting": "[2]; Huh-7, read-out: HBeAg IC50", "value": "> 100000", "unit": "nM"}, {"measurement": "IC50", "setting": "[3]; [6]", "value": "> 100000", "unit": "nM"}]}
{"compound": "CCOC(=O)C1=C(CN2CCO[C@H](CCC(=O)O)C2)NC(c2nccs2)=N[C@H]1c1ccc(F)cc1Br", "note": "[HEC72702, 3-((R)-4-(((R)-6-(2-Bromo-4-fluorophenyl)-5-(ethoxycarbonyl)-2-(thiazol-2-yl)-3,6-dihydropyrimidin-4-yl)methyl)morpholin-2-yl)propanoic acid]", "values": [{"measurement": "IC50", "setting": "HBV [5]", "value": 39, "unit": "nM"}]}
{"compound": "C[C@H](NS(=O)(=O)c1cc(C(=O)Nc2ccc(F)c(C#N)c2)n(C)c1)C(F)(F)F", "note": "[JNJ-379]", "values": [{"measurement": "IC50", "setting": "HBV [5]; no reference printed directly", "value": 69, "unit": "nM"}]}
{"compound": "Cc1cc(NC(=O)c2cccc(S(=O)(=O)N[C@H]3CCOC3)c2)ccc1F", "note": "[JNJ-632]", "values": [{"measurement": "IC50", "setting": "HBV [5]", "value": 120, "unit": "nM"}]}
{"compound": "COC(=O)C1=C(CN2CCOCC2)NC(c2nccs2)=N[C@@H]1c1ccc(F)cc1Br", "note": "[NVR-010-001-E2]", "values": [{"measurement": "IC50", "setting": "HBV [5]", "value": 11, "unit": "nM"}]}
{"compound": "CCOC(=O)C1=C(CN2CCN3C(=O)N(CC(C)(C)C(=O)O)C[C@@H]3C2)N=C(c2nccs2)N[C@H]1c1cccc(F)c1C", "note": "[RG7907, linvencorvir]", "values": [{"measurement": "IC50", "setting": "HBV [5]", "value": 6, "unit": "nM"}]}
{"compound": "O=C(NCc1cnc(C(F)(F)F)s1)c1ccc2c(c1)NC(=O)c1ccccc1S2(=O)=O", "note": "[vebicorvir]", "values": [{"measurement": "IC50", "setting": "HBV [5]", "value": 173, "unit": "nM"}]}
{"compound": "GLS4", "values": [{"measurement": "concentration needed to significantly inhibit HBcAg's expression", "setting": "HBcAg", "value": "above 10 μmol/L"}, {"measurement": "decrease of HBcAg expression", "setting": "HBcAg", "value": 56.4, "unit": "%"}, {"measurement": "IC50", "setting": "wild type HBV (pHBV 1.3); Wide type (pHBV 1.3)", "value": 252, "unit": "nM"}, {"measurement": "IC50", "setting": "HBV [5]", "value": 12, "unit": "nM"}]}
